Measurements published in patent US20040213771A1, “Targets and screens for agents useful in controlling parasitic nematodes” (priority 2001, published 2004).
Like-named read-outs stand apart in the source and are kept apart here.

What was measured:
[1] = test system: C. elegans wild-type (N2) and nhr-8(ok186) mutant animals; settings: for Sensitivity of nhr-8(ok186) mutant animals compared with wild-type (N2), L1 assay: 1% DMSO, 20° C., ~72 hours, FIGS. 13 and 14
Experimental: Assays for nematode sensitivity to toxic compounds known to induce mammalian cytochrome P450 expression (β-naphthaflavone, primaquine, and atrazine, available from Sigma) were performed in polystyrene 24-well tissue culture plates (Costar, Corning, N.Y.). Each culture well was filled with 0.8 ml of NGM agar (Lewis, J. A. and J. T. Fleming, Basic culture methods, in Caenorhabditis elegans: Modern Biological Analysis of an Organism, H. F. Epstein and D. C. Shakes, Editors. 1995, Academic Press: San Diego, Calif. pp. 3-29) containing compound additions as indicated. Compound solutions and dilutions were prepared in DMSO, and the appropriate amounts of compound were added to aliquots of molten NGM agar (equilibrated in a 55° C. water bath) prior to pouring the wells. For each compound, assays were performed using a range of final compound concentrations in the agar (0, 2, 5, 10, 20 and 30 ug/ml β-naphthoflavone; 0, 25, 50, 100, 250, and 77 ug/ml atrazine; 0, 20, 40, 60, 80 and 100 ug/ml primaquine). The final concentration of DMSO in the agar was 1% in every case, and controls of no addition and of 1% DMSO were also included in every assay series. Once the agar was solidified, each well was seeded with a lawn of E. coli OP50-1 prior to the addition of nematodes. All assays were performed in duplicate. Two different assay strategies were used to assess compound effects on nematode growth and viability: L1 assay: Synchrono5us nematode cultures of the wild-type strain N2 and of the mutant nhr-8(ok186) were obtained by isolating L1 larvae as described Lewis, J. A. and J. T. Fleming, Basic culture methods, in Caenorhabditis elegans: Modern Biological Analysis of an Organism, H. F. Epstein and D. C. […] The actual number of worms in each well was determined by direct count. […] After incubation at 20° C. for ˜72 hours, larval growth was assessed in each well by counting the number of gravid adults, L4 larvae/non-gravid adults, and larvae younger than the L4 stage. […] This difference was recorded as a “missing” class.

[2] = test system: C. elegans CYP genes (CYP35A1-A5, CYP35B1-B3, CYP35C, CYP31A1, CYP31A3); assay: Induction of cytochrome P450 gene expression, semi-quantitative RT-PCR; assay type: in vivo, Caenorhabditis elegans; settings: 5 ug/ml beta-naphthaflavone plus 1% DMSO or 1 mM chloroquine; ~72 hours at 20° C.; observed in both N2 and nhr-8(ok186) animals; FIG. 15
Experimental: The plates were incubated at 20° C. for ˜72 hours to allow for nematode growth and exposure to compound. Nematodes were then harvested, washed 3× in M9 to remove residual bacteria, and flash frozen in liquid nitrogen. Total RNA was isolated from the frozen nematodes as described (Sluder, A., S. W. Mathews, D. Hough, V. P. Yin, and C. V. Maina, The nuclear receptor superfamily has undergone extensive proliferation and diversification in nematodes. Genome Research, 1999. 9: 103-120).
The levels of cytochrome P450 mRNA in each RNA prep were assayed by semi-quantitative RT-PCR, using primers for specific cytochrome P450 gene sequences presented in Tables 5 and 6, in which nucleotides at degenerate positions are indicated using (N/N). […] Prior to performing PCR amplification to assess gene expression levels, the number of amplification cycles to be employed with each primer pair was selected to ensure that the amplification reactions remained within the linear reaction range [cycle number was selected as described in Johnstone, I. L. and J. D. Barry, Temporal reiteration of a precise gene expression pattern during nematode development Embo J. 1996, 15: 3633-3639, except that reaction products were analyzed by ethidium bromide-staining rather than Southern blotting]. […]

[3] = test system: C. elegans wild type (N2), nhr-8(ok186), pgp-3(pk18) and nhr-8(ok186); pgp-3(pk18) worms
Experimental: Assays for nematode killing by selected toxins were performed in polystyrene 12-well tissue culture plates from Costar (Corning, N.Y.). Concentrated stock solutions of toxins were purified by filtration through 0.2 μm nitrocellulose filters (Corning, Corning, N.Y.). Because the toxin concentrations were not measured following filtration, the molarities of the solutions are estimates. Concentrated toxin stock solutions were serially diluted with S media (0.1 M NaCl, 0.05M potassium phosphate, 5 μg/ml cholesterol, 0.05 mM disodium EDTA, 0.025 mM FeSO4.7H2O, 0.001 mM MnCl2.4H2O, 0.001 mM ZnSO4.7H2O, 0.0001 mM CuSO4.5H2O, […]) to produce appropriate working solutions. To provide a bacterial food source, a saturated culture of E. coli OP50 [43] grown in LB was pelleted and resuspended in each toxin solution. For each 50 ml of toxin solution, 25 ml of the bacterial culture was pelleted for resuspension. Serial dilutions were made in bulk and aliquoted into individual wells (1 ml per well).
To assess killing by the toxins, single hermaphrodites were allowed to lay eggs in individual wells for a 12 hour interval, then transferred to fresh wells. Hatched larvae in each well were counted 12 hours after removal of the hermaphrodite and observed over the course of seven days for development and survival to adulthood [wild type animals complete postembryonic development within 3 days, 29].

[4] = test system: C. elegans nhr-8(RNAi) worms; assay: Colchicine toxicity assay after RNA-mediated interference of nhr-8; assay type: in vivo, Caenorhabditis elegans; settings: nhr-8(RNAi) vs nhr-8(ok186); percentage surviving to the adult stage; FIG. 7
Experimental: Single RNA strands were produced with the Ambion MEGAscript in vitro transcription kit, using as template a PCR amplicon (produced from cm14e12 using primers EL-15 and T7) that lacked sequences encoding the NHR-8 DNA binding domain. To produce dsRNA, equal amounts of sense and antisense transcription reactions and 3× injection buffer (20 mM KPO4 pH 7.5, 3 mM KCitrate pH 7.5, 2% PEG6000) were combined and incubated on a thermal cycler for strand annealing (95° C., 20 sec.; reduced by 2° C. per 10 sec. cycle for 11 cycles). Both gonad arms of young adult hermaphrodites were injected with the dsRNA [25]. Following a 12 hour purge period to remove embryos unlikely to have received a full dose of dsRNA, the injected hermaphrodites were used in the colchicine toxicity assay described above.

| SMILES | Sensitivity of nhr-8(ok186) mutant animals compared with wild-type (N2), L1 assay [1] | CYP genes whose expression was induced [2] | Toxin sensitivity of nhr-8(ok186) homozygotes compared with wild type animals (percentage surviving to the adult stage) ([3]; in vivo) | other results |
| --- | --- | --- | --- | --- |
| CCNc1nc(Cl)nc(NC(C)C)n1 [atrazine] | slightly increased sensitivity |  |  |  |
| CCN(CC)CCCC(C)Nc1ccnc2cc(Cl)ccc12 (centres unmarked) [chloroquine] |  | CYP35A1, CYP35B1, CYP35B2, and CYP35B3 | more sensitive | Toxin sensitivity of nhr-8(ok186); pgp-3(pk18) double mutant animals compared with animals with only a single disrupted gene ([3]; in vivo): more sensitive |
| COc1cc2c(c(OC)c1OC)-c1ccc(OC)c(=O)cc1[C@@H](NC(C)=O)CC2 [colchicine] |  |  | more sensitive | Colchicine sensitivity after disruption of nhr-8 function by RNA mediated interference [4]: phenocopies the colchicine sensitivity of the nhr-8(ok186) mutants; Toxin sensitivity of nhr-8(ok186); pgp-3(pk18) double mutant animals compared with animals with only a single disrupted gene ([3]; double mutant vs single mutants, FIG. 6): more sensitive; Toxin sensitivity of nhr-8(ok186) animals compared with pgp-3 putative null mutants ([3]; nhr-8(ok186) vs pgp-3(pk18), FIG. 6): as sensitive |
| COc1cc(NC(C)CCCN)c2ncccc2c1 (centres unmarked) [primaquine] | increased sensitivity |  |  |  |
| O=c1cc(-c2ccccc2)oc2ccc3ccccc3c12 [β-naphthoflavone] |  | CYP35A3 and CYP35A4 |  | Difference in sensitivity of wild-type (N2) and nhr-8(ok186) mutant animals ([1]; preliminary experiments, data not shown): did not reveal any detectable differences |
